Measurements published in patent publication US20210180013A1, “IMPROVED METHODS FOR INDUCING TISSUE REGENERATION AND SENOLYSIS IN MAMMALIAN CELLS” (AgeX Therapeutics, Inc., priority 2018, published 2021).
Where “and” joins values, the source holds several entries; their conditions need not be identical. Equal entries are not always repeated.

How the values were obtained:
4D20.8 and MSCs = test: TUNEL apoptosis assay, embryonic vs adult mesenchymal cells; format: cell-based, human; conditions: 3.7 nM; 24 hours; 4D20.8 vs MSC; FIG. 7
Experimental: (§1) Optimized conditions were identified for distinguishing the increased apoptosis anticipated by cells with a pre-fetal pattern of gene expression. Embryonic and adult-derived mesenchymal (4D20.8 and MSCs respectively) and vascular endothelial cells (30MV2-6 and HAEC respectively) were treated with diverse stimuli for apoptosis including: Camptothecin (CPT), H2O2, and Thapsigargin (TG) at two concentrations each as well as a vehicle control. The compounds were applied for 24 hours prior to analysis. After treatment apoptosis was monitored via TUNEL staining using the In Situ Cell Death Detection kit (Roche, cat #12156792910) following the manufacturer's instructions. […] This assay is therefore useful in determining the effectiveness of iTR factors in inducing senolysis in aged cells and in CSCs.

30MV2-6 and HAEC = test: TUNEL apoptosis assay, embryonic vs adult vascular endothelial cells; format: cell-based, human; conditions: 3.7 nM; 24 hours; 30MV2-6 vs HAEC; FIG. 7
Experimental: as §1

[1] = tested on: Xgene fibroblasts (human foreskin); test: Cell number of early and late passage fibroblasts (senolytic activity); format: cell-based; conditions: for cell number, Avg / cell number, single wells: 20,000 cells/well seeded; for cell number, Avg / cell number, single wells / cell number compared to controls, in words: 1 week; for Fold change of cell number: relative to control (growth medium alone)
Experimental: Xgene fibroblasts (human foreskin, obtained from Xgene, Sausilito Calif.) were seeded at early (P9) and late (P33) passage at 20,000 cells/well (0.1% gelatin coated 24 well plate) in growth medium (DMEM+10% FBS). The following day they were refed medium with the additive listed below for 1 week and fed every other day and then counted.

BJ-TERT fibroblast cells = test: Scratch assay of tissue regeneration and cell proliferation; format: cell-based; conditions: 2 weeks treatment; 800 um scratch; % filling 16 hours later
Experimental: BJ-TERT fibroblast cells at passage 8 were seeded at 50,000 cells/well on 6 well plates in DMEM 10% FBS. The following day the cells were treated with various cocktails listed below for 2 weeks:
Following treatment, at confluence an 800 um scratch was made and % filling evaluated 16 hours later. Filling of scratch of treated cells were compared to that of control.

COX7A1 = test: qPCR of COX7A1 after valproic acid treatment; format: cell-based; conditions: 28 days, adult derived dermal fibroblasts
Experimental: Adult derived dermal fibroblasts were cultured in DMEM 10% FBS in wells of 6 well plates and treated with valproic acid at 0.5 mM and 1 mM for 28 days. On day 28 the media was removed, the cells were washed with PBS, and then lysed using RLT with beta-mercaptoethanol (Qiagen Cat 79216). Total RNA was extracted using Qiagen RNeasy mini-kits (Qiagen Cat 74106) following manufacturers instructions. Then cDNA was prepared using ThermoFisher superscript III (Cat. 18080044). qPCR was run on an Applied Biosystems 7500 Real-Time PCR System employing SDSv2.3 software to evaluate the expression of COX7A1 (which is a definitive indicator of adult phenotype) relative to GAPDH of the treated line relative to the untreated line.

## C/C=C(/C)C(=O)O[C@H]1C(C)=C2[C@H]([C@@H]1OC(=O)CCCCCCC)[C@@](C)(OC(C)=O)C[C@H](OC(=O)CCC)[C@@]1(O)[C@H]2OC(=O)[C@@]1(C)O [Thapsigargin]
4D20.8 and MSCs
  apoptosis (TUNEL), embryonic mesenchymal cells compared to adult counterparts: robust statistically-significant increase in apoptosis
30MV2-6 and HAEC
  apoptosis (TUNEL), embryonic endothelial cells compared to adult counterparts: robust statistically-significant increase in apoptosis

## CCCC(CCC)C(=O)O [valproic acid]
[1]; early passage P9
  cell number, Avg: 226,000
  Fold change of cell number: 1.2
[1]; early passage P9, listed as Cond. B
  cell number, single wells: 228,000 and 224,000
[1]; late passage (P33)
  cell number compared to controls, in words: differential effect on late passage cells
[1]; late passage P33
  cell number, Avg: 67,000
  Fold change of cell number: 1.0
[1]; late passage P33, listed as Cond. B
  cell number, single wells: 62,000 and 72,000
BJ-TERT fibroblast cells
  Fold Increase Over Control (filling of scratch): 1.4
COX7A1; 0.5 mM
  COX7A1 expression (normalized to GAPDH) compared to control (untreated): negligible effect
COX7A1; 1 mM
  COX7A1 expression (normalized to GAPDH) compared to control (untreated): 0.001

B1: A: LIN28A-11R (LD Biopharma HTF 0046) 4 ug/ml (protein, UniProt Q9H9Z2 2-209, looked up)
Protein lin-28 homolog A: GSVSNQQFAGGCAKAAEEAPEEAPEDAARAADEPQLLHGAGICKWFNVRMGFGFLSMTARAGVALDPPVDVFVHQSKLHMEGFRSLKEGEAVEFTFKKSAKGLESIRVTGPGGVFCIGSERRPKGKSMQKRRSKGDRCYNCGGLDHHAKECKLPPQPKKCHFCQSISHMVASCPLKAQQGPSAQGKPTYFREEEEEIHSPTLLPEAQN
modifications: C-terminal 11-arginine cell-penetrating tag
notes: LIN28A-11R (LD Biopharma HTF 0046) 4 ug/ml
[1]; early passage (P9)
  cell number compared to controls, in words: heightened cell number
[1]; early passage P9
  cell number, Avg: 254,000
  Fold change of cell number: 1.3
[1]; early passage P9, listed as Cond A
  cell number, single wells: 220,000 and 288,000
[1]; late passage (P33)
  cell number compared to controls, in words: differential effect on late passage cells
[1]; late passage (P33), listed as condition A
  cell number compared to controls, in words: reduced cell number
[1]; late passage P33
  cell number, Avg: 48,000
  Fold change of cell number: 0.8
[1]; late passage P33, listed as Cond A
  cell number, single wells: 46,000 and 50,000
BJ-TERT fibroblast cells
  Fold Increase Over Control (filling of scratch): 1.2
